Calls of active or inactive are those of the source. The rule behind the calls is not given here.
Test system: rodent lifetime carcinogenesis bioassay, tumor incidence TD50
Assay: carcinogenic potency in animals, long-term in vivo studies, CPDB compilation (AID 1745844)

`CCOc1ccc(NC(C)=O)cc1` was tested, and the TD50 (mouse, strain B6C3F1, females, in feed, site: liver, lesion: hemangioma, dosed 96 weeks, study length 104 weeks) was 29200 mg/kg/day (inactive), the TD50 (mouse, strain B6C3F1, females, in feed, site: liver, lesion: hepatocellular carcinoma, dosed 96 weeks, study length 104 weeks) was 47700 mg/kg/day (inactive) and the TD50 (mouse, strain B6C3F1, females, in feed, site: liver, lesion: hyperplastic nodule, dosed 96 weeks, study length 104 weeks) was 14000 mg/kg/day (inactive). For the same compound, the TD50 (mouse, strain B6C3F1, females, in feed, site: lung, lesion: adenocarcinoma, dosed 96 weeks, study length 104 weeks) was 8830 mg/kg/day (inactive), the TD50 (mouse, strain B6C3F1, females, in feed, site: lung, lesion: adenoma, dosed 96 weeks, study length 104 weeks) was 6890 mg/kg/day (inactive) and the TD50 (mouse, strain B6C3F1, females, in feed, site: urinary bladder, lesion: papilloma, dosed 96 weeks, study length 104 weeks) was 37000 mg/kg/day. The TD50 (mouse, strain B6C3F1, females, in feed, site: urinary bladder, lesion: transitional-cell carcinoma, dosed 96 weeks, study length 104 weeks) was 37000 mg/kg/day, the TD50 (mouse, strain B6C3F1, males, in feed, site: kidney, lesion: renal-cell adenoma, dosed 96 weeks, study length 104 weeks) was 1100 mg/kg/day and the TD50 (mouse, strain B6C3F1, males, in feed, site: kidney, lesion: renal-cell carcinoma, dosed 96 weeks, study length 104 weeks) was 4020 mg/kg/day. The carcinogen call (mouse, strain B6C3F1, males, in feed, site: liver, lesion: hemangioma, dosed 96 weeks, study length 104 weeks) was “negative (inactive)”, the TD50 (mouse, strain B6C3F1, males, in feed, site: liver, lesion: hepatocellular carcinoma, dosed 96 weeks, study length 104 weeks) was 17100 mg/kg/day (inactive) and the carcinogen call (mouse, strain B6C3F1, males, in feed, site: liver, lesion: hyperplastic nodule, dosed 96 weeks, study length 104 weeks) was “negative (inactive)”. For the same compound, the TD50 (mouse, strain B6C3F1, males, in feed, site: lung, lesion: adenocarcinoma, dosed 96 weeks, study length 104 weeks) was 3800 mg/kg/day (inactive), the TD50 (mouse, strain B6C3F1, males, in feed, site: lung, lesion: adenoma, dosed 96 weeks, study length 104 weeks) was 5280 mg/kg/day (inactive) and the carcinogen call (mouse, strain C57BL/6, females, in feed, site: liver, lesion: one or several types, types not named, dosed 77 weeks, study length 77 weeks) was “negative (inactive)”. The TD50 (mouse, strain C57BL/6, males, in feed, site: liver, lesion: hyperplastic nodule, dosed 77 weeks, study length 77 weeks) was 12900 mg/kg/day (inactive), the TD50 (rat, strain Sprague-Dawley, females, in feed, site: all sites, lesion: myeloid leukemia, dosed 78 weeks, study length 104 weeks) was 2560 mg/kg/day (inactive) and the TD50 (rat, strain Sprague-Dawley, females, in feed, site: any site (literature study), lesion: several types, types named in the paper, dosed 78 weeks, study length 104 weeks) was 1210 mg/kg/day. The TD50 (rat, strain Sprague-Dawley, females, in feed, site: ear duct, lesion: squamous-cell carcinoma, dosed 110 weeks, study length 110 weeks) was 1430 mg/kg/day, the TD50 (rat, strain Sprague-Dawley, females, in feed, site: mammary gland, lesion: adenocarcinoma, dosed 110 weeks, study length 110 weeks) was 1380 mg/kg/day and the TD50 (rat, strain Sprague-Dawley, females, in feed, site: nasal cavity, lesion: adenocarcinoma, dosed 78 weeks, study length 104 weeks) was 7730 mg/kg/day. The TD50 (rat, strain Sprague-Dawley, females, in feed, site: nasal cavity, lesion: squamous-cell carcinoma, dosed 78 weeks, study length 104 weeks) was 48000 mg/kg/day, the TD50 (rat, strain Sprague-Dawley, females, in feed, site: nasal cavity, lesion: transitional-cell carcinoma, dosed 78 weeks, study length 104 weeks) was 23800 mg/kg/day and the TD50 (rat, strain Sprague-Dawley, females, in feed, site: several sites, sites named in the paper, lesion: several types, types named in the paper, dosed 78 weeks, study length 104 weeks) was 2730 mg/kg/day. The TD50 (rat, strain Sprague-Dawley, females, in feed, site: urinary bladder, lesion: papilloma, dosed 78 weeks, study length 104 weeks) was 23800 mg/kg/day, the TD50 (rat, strain Sprague-Dawley, females, in feed, site: urinary bladder, lesion: transitional-cell carcinoma, dosed 78 weeks, study length 104 weeks) was 11700 mg/kg/day and the TD50 (rat, strain Sprague-Dawley, males, in feed, site: all sites, lesion: myeloid leukemia, dosed 78 weeks, study length 104 weeks) was 2380 mg/kg/day (inactive). It also gave a TD50 (rat, strain Sprague-Dawley, males, in feed, site: any site (literature study), lesion: several types, types named in the paper, dosed 78 weeks, study length 104 weeks) of 631 mg/kg/day, a TD50 (rat, strain Sprague-Dawley, males, in feed, site: forestomach, lesion: squamous-cell papilloma, dosed 117 weeks, study length 117 weeks) of 2690 mg/kg/day and a TD50 (rat, strain Sprague-Dawley, males, in feed, site: kidney cortex, lesion: renal-cell tumor, dosed 117 weeks, study length 117 weeks) of 1300 mg/kg/day. The TD50 (rat, strain Sprague-Dawley, males, in feed, site: kidney/pelvis, lesion: one or several types, types not named, dosed 117 weeks, study length 117 weeks) was 5470 mg/kg/day, the TD50 (rat, strain Sprague-Dawley, males, in feed, site: kidney/pelvis, lesion: renal-cell carcinoma, dosed 78 weeks, study length 104 weeks) was 38300 mg/kg/day and the TD50 (rat, strain Sprague-Dawley, males, in feed, site: liver, lesion: hemangioma, dosed 117 weeks, study length 117 weeks) was 5470 mg/kg/day. The TD50 (rat, strain Sprague-Dawley, males, in feed, site: nasal cavity, lesion: adenocarcinoma, dosed 78 weeks, study length 104 weeks) was 2380 mg/kg/day, the TD50 (rat, strain Sprague-Dawley, males, in feed, site: nasal cavity, lesion: squamous-cell carcinoma, dosed 78 weeks, study length 104 weeks) was 7530 mg/kg/day and the TD50 (rat, strain Sprague-Dawley, males, in feed, site: nasal cavity, lesion: transitional-cell carcinoma, dosed 78 weeks, study length 104 weeks) was 4050 mg/kg/day. The TD50 (rat, strain Sprague-Dawley, males, in feed, site: several sites, sites named in the paper, lesion: several types, types named in the paper, dosed 78 weeks, study length 104 weeks) was 741 mg/kg/day, the TD50 (rat, strain Sprague-Dawley, males, in feed, site: urinary bladder, lesion: one or several types, types not named, dosed 117 weeks, study length 117 weeks) was 1640 mg/kg/day and the TD50 (rat, strain Sprague-Dawley, males, in feed, site: urinary bladder, lesion: transitional-cell carcinoma, dosed 78 weeks, study length 104 weeks) was 2710 mg/kg/day. For the same compound, the carcinogen call (rat, strain Wistar, females, in feed, site: urinary tract, lesion: one or several types, types not named, dosed 69 weeks, study length 69 weeks) was “negative (inactive)”.

`CN(C)C(=O)Nc1cccc(C(F)(F)F)c1` was tested, and the TD50 (mouse, strain B6C3F1, females, in feed, site: any site (literature study), lesion: several types, types named in the paper, dosed 103 weeks, study length 103 weeks) was 369 mg/kg/day (inactive), the TD50 (mouse, strain B6C3F1, females, in feed, site: liver, lesion: hepatocellular adenoma + hepatocellular carcinoma + neoplastic nodule, dosed 103 weeks, study length 103 weeks) was 1230 mg/kg/day and the TD50 (mouse, strain B6C3F1, males, in feed, site: any site (literature study), lesion: several types, types named in the paper, dosed 103 weeks, study length 103 weeks) was 265 mg/kg/day. For the same compound, the TD50 (mouse, strain B6C3F1, males, in feed, site: liver, lesion: hepatocellular adenoma + hepatocellular carcinoma + neoplastic nodule, dosed 103 weeks, study length 103 weeks) was 229 mg/kg/day, the TD50 (mouse, strain B6C3F1, males, in feed, site: liver, lesion: hepatocellular adenoma + hepatocellular carcinoma, dosed 103 weeks, study length 103 weeks) was 229 mg/kg/day and the TD50 (mouse, strain B6C3F1, males, in feed, site: lung, lesion: alveolar/bronchiolar adenoma + alveolar/bronchiolar carcinoma, dosed 103 weeks, study length 103 weeks) was 1420 mg/kg/day. The carcinogen call (rat, strain Fischer 344, females, in feed, site: any site (literature study), lesion: several types, types named in the paper, dosed 103 weeks, study length 104 weeks) was “negative (inactive)”, the TD50 (rat, strain Fischer 344, males, in feed, site: liver, lesion: hepatocellular adenoma + hepatocellular carcinoma + neoplastic nodule, dosed 103 weeks, study length 104 weeks) was 55.4 mg/kg/day and the TD50 (rat, strain Fischer 344, males, in feed, site: liver, lesion: neoplastic nodule, dosed 103 weeks, study length 104 weeks) was 55.4 mg/kg/day (inactive).

For `CN(C)CCN(Cc1ccsc1)c1ccccn1`, the carcinogen call (rat, strain Fischer 344, females, in drinking water, site: liver, lesion: several types, types named in the paper, dosed 80 weeks, study length 130 weeks) was “negative (inactive)”, the TD50 (rat, strain Fischer 344, females, in drinking water, site: thyroid follicle, lesion: several types, types named in the paper, dosed 80 weeks, study length 130 weeks) was 10700 mg/kg/day (inactive) and the TD50 (rat, strain Fischer 344, males, in drinking water, site: liver, lesion: several types, types named in the paper, dosed 80 weeks, study length 130 weeks) was 96.8 mg/kg/day (inactive). The carcinogen call (rat, strain Fischer 344, males, in drinking water, site: thyroid follicle, lesion: several types, types named in the paper, dosed 80 weeks, study length 130 weeks) was “negative (inactive)”.

`CC1=CC(C)(C)N(N=O)c2ccccc21` gave a TD50 (rat, strain CB, males, i.p., site: peritoneal cavity, lesion: sarcoma, dosed 26 weeks, study length 100 weeks) of 3.31 mg/kg/day.

— PubChem BioAssay AID1745844 (Carcinogenic Potency Database (CPDB), 2022)
